Laboratory results taken from patent EP1988087A1, “Novel 5-cyano-prostacyclin derivatives and their use as agents for the treatment of autoimmune diseases” (Bayer Schering Pharma Aktiengesellschaft, priority 2007, dated 2008).

Target: EP4 receptor (Homo sapiens, UniProt P35408)
Experiment: cAMP accumulation assay in cells expressing EP4 (Biological Example 1, diol derivative)
Format: cell-based
Conditions: cAMP luminescence, mean of triplicate
Protocol: Commercial cAMP accumulation assays are typically competitive immunoassays in which free cAMP from cell lysates competes for antibody binding against a "labeled" cAMP molecule. This positive signal is generated in direct proportion to the amount of free cAMP. In our assays cAMP standards and samples are pipetted into the wells of a microplate. An antibody specific cAMP is added to the wells. A substrate is added to the wells and luminescence develops in proportion to the amount of cAMP which accumulated during treatment of cells which express the EP4 receptor with standards and samples. The intensity of the luminescence is measured in a luminometer.
The response of the EP4 expressing cells treated with the diol derivative is compared to Nileprost. Results shown are the mean of triplicate determinations.

EP4 receptor, sequence (P35408 whole entry): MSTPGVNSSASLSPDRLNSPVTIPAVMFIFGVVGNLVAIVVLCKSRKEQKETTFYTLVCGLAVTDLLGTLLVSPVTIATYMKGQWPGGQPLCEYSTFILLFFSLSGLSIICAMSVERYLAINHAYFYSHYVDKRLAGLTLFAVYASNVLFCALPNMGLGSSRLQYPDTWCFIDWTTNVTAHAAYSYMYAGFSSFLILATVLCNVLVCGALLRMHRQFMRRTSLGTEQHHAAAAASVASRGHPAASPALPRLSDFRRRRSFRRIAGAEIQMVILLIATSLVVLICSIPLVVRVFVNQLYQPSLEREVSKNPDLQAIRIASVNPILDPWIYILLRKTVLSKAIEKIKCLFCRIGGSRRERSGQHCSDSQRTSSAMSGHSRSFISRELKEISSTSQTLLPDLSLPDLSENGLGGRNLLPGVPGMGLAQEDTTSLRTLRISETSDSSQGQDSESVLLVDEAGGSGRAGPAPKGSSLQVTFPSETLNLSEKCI

Work on `CCCCC(C)[C@H](O)/C=C/[C@@H]1[C@H]2C/C(=C(\C#N)CCCC(=O)O)O[C@H]2C[C@H]1O` (stereo partly drawn) [Nileprost, 5-cyano-16-methylprostacyclin] yielded an RLU - background (compound 0.010 nM) of 0 RLU, an RLU - background (compound 0.152 nM) of 850786 RLU and an RLU - background (compound 0.457 nM) of 1291900 RLU. The RLU - background (compound 1.372 nM) was 1521826 RLU, the RLU - background (compound 4.115 nM) was 1626762 RLU and the RLU - background (compound 12.346 nM) was 1589698 RLU. The RLU - background (compound 37.037 nM) was 1312998 RLU, the RLU - background (compound 111.111 nM) was 1258626 RLU and the RLU - background (compound 333.333 nM) was 1648306 RLU. The RLU - background (compound 1000.000 nM) was 1635488 RLU, the RLU - background (compound 3000.000 nM) was 1625442 RLU and the RLU - background (compound 9000.000 nM) was 1599712 RLU.
